The numbers were not newly measured in patent US20070212307A1, “Pharmaceutical Compositions Comprising an Opioid Receptor Antagonist and Methods of Using Same” (priority 2006, published 2007), which cites them from elsewhere.

For the data set the following is noted: 50 mg oral dose.

As to `O=C1CC[C@@]2(O)[C@H]3Cc4ccc(O)c5c4[C@@]2(CCN3CC2CC2)[C@H]1O5` [naltrexone], the oral bioavailability is 10%-25%.
